Target: 3-phosphoinositide-dependent protein kinase 1, PDPK1 (Homo sapiens) (UniProt O15530)
Test: Inhibition of PDK1

3-phosphoinositide-dependent protein kinase 1, PDPK1 (Homo sapiens), sequence (O15530 whole entry, looked up): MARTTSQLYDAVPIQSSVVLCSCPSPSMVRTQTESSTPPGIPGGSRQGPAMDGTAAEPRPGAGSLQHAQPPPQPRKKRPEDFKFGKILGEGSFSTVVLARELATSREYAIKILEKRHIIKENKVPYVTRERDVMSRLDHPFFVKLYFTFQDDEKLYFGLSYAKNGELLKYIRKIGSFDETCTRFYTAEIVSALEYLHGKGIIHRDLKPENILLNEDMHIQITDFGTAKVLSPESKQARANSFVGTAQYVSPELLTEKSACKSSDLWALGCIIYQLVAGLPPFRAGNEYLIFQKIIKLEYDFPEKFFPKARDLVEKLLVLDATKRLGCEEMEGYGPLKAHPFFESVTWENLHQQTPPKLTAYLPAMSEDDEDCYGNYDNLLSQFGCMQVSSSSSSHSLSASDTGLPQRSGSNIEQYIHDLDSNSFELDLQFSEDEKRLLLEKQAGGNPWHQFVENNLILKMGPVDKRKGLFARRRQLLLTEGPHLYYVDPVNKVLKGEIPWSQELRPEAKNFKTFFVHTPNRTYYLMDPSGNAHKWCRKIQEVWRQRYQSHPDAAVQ

Row | Structure (SMILES) | IC50 [µM]
1 | Cn1nc(C(N)=O)c2c1-c1nc(NC3CCN(C(=O)c4ccccc4)CC3)ncc1CC2 [1-Methyl-8-{[1-(phenylcarbonyl)piperidin-4-yl]amino}-4,5-dihydro-1H-pyrazolo[4,3-h]quinazoline-3-carboxamide] | > 10
2 | CC(=O)N1CCC(Nc2ncc3c(n2)-c2c(c(C(N)=O)nn2C)CC3)CC1 [8-[(1-Acetylpiperidin-4-yl)amino]-1-methyl-4,5-dihydro-1H-pyrazolo[4,3-h]quinazoline-3-carboxamide] | > 10
